According to patent US5744340A, “Expression of human inducible nitric oxide synthase” (Schering Corporation, priority 1995, dated 1998):
Values joined by “and” are separate entries in the source; they are usually repeats but may differ in a detail not shown here. Equal values may be shown once. Read-outs that look alike come from different tables or passages of the source. Blank lines part the entries; values can stand above or below the compound they belong to.

Experiments:
human iNOS [1] = molecular target: T1, human iNOS (Homo sapiens, UniProt P35228); test: iNOS activity: conversion of radioactive arginine to citrulline; format: biochemical; conditions: for dependence of activity on iNOS cofactors: crude cell extract; for NOS activity without calmodulin coexpression: expression in E. coli
T1 construct: A full length iNOS cDNA was assembled from the products of the four PCR reactions; made in house; host or cells: E. coli JS5
T1 sequence (P35228 whole entry): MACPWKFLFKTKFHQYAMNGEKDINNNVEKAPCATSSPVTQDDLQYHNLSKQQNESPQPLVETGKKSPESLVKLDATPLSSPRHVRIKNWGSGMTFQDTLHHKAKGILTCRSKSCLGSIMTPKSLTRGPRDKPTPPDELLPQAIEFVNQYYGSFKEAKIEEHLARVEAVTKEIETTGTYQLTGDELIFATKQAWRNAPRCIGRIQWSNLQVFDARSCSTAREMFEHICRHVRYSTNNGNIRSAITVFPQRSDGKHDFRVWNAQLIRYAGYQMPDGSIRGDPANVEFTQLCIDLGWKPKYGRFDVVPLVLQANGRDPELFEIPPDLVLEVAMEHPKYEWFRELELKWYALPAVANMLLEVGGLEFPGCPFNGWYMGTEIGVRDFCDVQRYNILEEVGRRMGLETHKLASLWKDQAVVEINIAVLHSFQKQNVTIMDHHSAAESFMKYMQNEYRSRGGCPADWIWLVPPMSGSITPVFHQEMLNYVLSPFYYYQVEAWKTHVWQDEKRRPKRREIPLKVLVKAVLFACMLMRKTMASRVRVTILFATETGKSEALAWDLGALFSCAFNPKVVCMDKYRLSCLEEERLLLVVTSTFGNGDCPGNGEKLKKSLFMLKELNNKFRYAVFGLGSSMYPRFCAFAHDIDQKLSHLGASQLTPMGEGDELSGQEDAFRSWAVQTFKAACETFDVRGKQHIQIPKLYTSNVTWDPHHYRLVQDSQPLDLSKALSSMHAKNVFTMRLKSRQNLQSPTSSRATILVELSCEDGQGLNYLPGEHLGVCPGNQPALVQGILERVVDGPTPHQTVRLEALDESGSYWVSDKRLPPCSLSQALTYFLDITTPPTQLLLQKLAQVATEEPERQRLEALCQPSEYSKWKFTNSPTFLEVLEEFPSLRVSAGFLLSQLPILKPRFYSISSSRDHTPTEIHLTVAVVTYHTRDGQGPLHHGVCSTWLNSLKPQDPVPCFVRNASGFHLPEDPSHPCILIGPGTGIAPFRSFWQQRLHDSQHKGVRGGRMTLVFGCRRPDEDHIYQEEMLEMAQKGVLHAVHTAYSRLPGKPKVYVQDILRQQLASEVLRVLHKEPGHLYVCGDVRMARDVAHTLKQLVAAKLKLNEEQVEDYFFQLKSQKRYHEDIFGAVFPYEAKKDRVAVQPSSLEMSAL

rat bNOS [2] = conditions: Klatt et al., 1994, cited from earlier work
human iNOS [3] = molecular target: T1, human iNOS; test: retention of iNOS activity on overnight storage; format: physicochemical
Description: Breakage of cells and the ammonium sulfate fractionations were done in the presence of 10 μM FAD, 10 μM FMN, 2 μM THB, and 2 μM hemin. Leaving these cofactors out of the breaking buffer had no effect on the level of iNOS activity. […] Flavins were omitted after the 40% ammonium sulfate fractionation since they bind tightly to Q Sepharose. CHAPS detergent was included for the Q Sepharose column because iNOS fractionated poorly from the bulk of the protein in its absence. The yield of iNOS from about 20 liters of cells (32 g starting protein in the crude extract) was about 30-40 mg.

murine iNOS = conditions: 1991, cited from earlier work
rat bNOS [4] = conditions: cited from earlier work

Compound: [Ca+2].[Cl-].[Cl-] [CaCl2, reference compound]
- effect of addition on iNOS activity (human iNOS [1]; 1 mM CaCl2): unaffected

- effect of addition on iNOS activity (human iNOS [1]; 1 mM EGTA): unaffected
Compound: O=C(O)CN(CCOCCOCCN(CC(=O)O)CC(=O)O)CC(=O)O [EGTA, reference compound]

- dependence of activity on iNOS cofactors (human iNOS [1]): no dependence
Compound: Cc1cc2nc3c(=O)[nH]c(=O)nc-3n(C[C@H](O)[C@H](O)[C@H](O)COP(=O)(O)OP(=O)(O)OC[C@H]3O[C@@H](n4cnc5c(N)ncnc54)[C@H](O)[C@@H]3O)c2cc1C [FAD, reference compound]

- dependence of activity on iNOS cofactors (human iNOS [1]): no dependence
Compound: Cc1cc2nc3c(=O)[nH]c(=O)nc-3n(C[C@H](O)[C@H](O)[C@H](O)COP(=O)(O)O)c2cc1C [FMN, reference compound]

- dependence of enzyme activity on added THB (human iNOS [1]; E. coli expressed iNOS): completely dependent
- EC50 (human iNOS [1]; FIG. 4, cells broken without THB, varying THB in assay, read-out: half-maximal activity (THB titration)): ~120 nM and 120 nM
- effect of THB on NOS activity (human iNOS [1]; cells broken in the absence of THB, THB added): restores NOS activity
Compound: C[C@H](O)[C@H](O)[C@H]1CNc2nc(N)[nH]c(=O)c2N1 [THB, tetrahydrobiopterin, reference compound]
- Kd (rat bNOS [2]; read-out: Kd for THB binding to rat bNOS): ~40 nM
- Kd (rat bNOS [2]; in the absence of 100 μM arginine, read-out: binding constant of THB for bNOS): 250 nM
- Kd (rat bNOS [2]; in the presence of 100 μM arginine, read-out: binding constant of THB for bNOS): 37 nM

Compound: N=C(N)NN [aminoguanidine, reference compound]
- IC50's on E. coli-derived compared with 293 cell-derived iNOS (human iNOS [1]; FIG. 5, 1 μM labeled arginine, inhibitor 0.01 to 10,000 μM): within two-fold of each other on both sources of iNOS

Compound: N=C(N)NCCC[C@H](N)C(=O)O [arginine, L-arginine, reference compound]
- Km for arginine compared with mammalian derived iNOS (human iNOS [1]; E. coli expressed iNOS): same Km

Compound: c1c[nH]cn1 [imidazole, reference compound]
- IC50 (human iNOS [1]): 120000 nM

- effect of addition of calmodulin on NOS activity (human iNOS [1]; FIG. 2, coexpression extracts, calmodulin 10 μg/ml, 1 μM undiluted labeled arginine): no effect
- effect of addition on iNOS activity (human iNOS [1]; calcium +10 mg/ml calmodulin): unaffected
- effect of calmodulin in the NOS assay (human iNOS [1]; iNOS expressed in E. coli without coexpression of calmodulin): no effect
Compound: calmodulin

Compound: hemin [reference compound]
- dependence of activity on iNOS cofactors (human iNOS [1]): no dependence

Compound: human iNOS: human inducible nitric oxide synthase expressed in E. coli, coexpressed with human calmodulin
- Specific Activity (human iNOS [1]; 40% ammonium sulfate ppt): 19,600 units/mg
- specific activity compared with murine iNOS (human iNOS [1]; E. coli expressed iNOS): approximately the same specific activity
- level of activity with coexpression relative to without coexpression (human iNOS [1]; FIG. 2, average of three assays): > 100 fold
- Specific Activity (human iNOS [1]; Q Sepharose pool): 149,000 units/mg
- Specific Activity (human iNOS [1]; S300 pool): 317,000 units/mg
- Specific Activity (human iNOS [1]; cell lysate): 2,420 units/mg
- activity with coexpression of calmodulin (human iNOS [1]; crude extract): 3000-5000 units/mg
- NOS activity without calmodulin coexpression (human iNOS [1]): barely detectable above background
- NOS activity without calmodulin coexpression (human iNOS [1]; listed as iNOS): barely detectable above the E. coli negative control
- specific activity of iNOS in the crude cell supernatant (human iNOS [1]; iNOS amount estimated from SDS gel against BSA control): 500-1000 nmoles citrulline/min/mg of iNOS
- specific activity of the most pure material (human iNOS [1]; leading edge of the S300 column, >95% pure): 450,000 units/mg
- activity after overnight storage (human iNOS [3]; absence of cofactors (FAD, FMN, THB, hemin)): half of the activity was lost
- activity after overnight storage (human iNOS [3]; presence of cofactors (10 μM FAD, 10 μM FMN, 2 μM THB, 2 μM hemin)): complete activity was retained

Compound: murine iNOS: purified murine inducible nitric oxide synthase (Stuehr et al., 1991)
- specific activity of purified murine iNOS (murine iNOS; Stuehr et al.): 1000 nmol/min/mg
- specific activity of murine iNOS (murine iNOS; pure murine iNOS, b61: Stuehr et al.): 1×10^6 units/mg and 1,000,000 units/mg

Compound: rat bNOS: rat brain or neuronal nitric oxide synthase
- specific activity of rat bNOS (rat bNOS [4]): 270,000 units/mg
